{"source": "patent US11642339B2", "about": "(THERAVANCE BIOPHARMA R&D IP, LLC, priority 2017, dated 2023)", "test_system": "subjects with diabetic or idiopathic gastroparesis", "assay": "DIGEST I Phase 2b: weekly GCSI-24H total score;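 note: Patient-reported daily electronic-diary symptom index rating nausea/vomiting, postprandial fullness/early satiety and bloating, averaged weekly, once-daily oral capsule taken before breakfast, baseline from 1-week pretreatment period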", "key": {"[1]": {"conditions": "5 mg/day, Week 8, diabetic patients"}, "[2]": {"conditions": "5 mg/day, Week 8, idiopathic patients"}, "[3]": {"conditions": "5 mg/day, Week 12, diabetic patients"}, "[4]": {"conditions": "5 mg/day, Week 12, idiopathic patients"}, "[5]": {"conditions": "5 mg/day, Week 14 (off therapy), diabetic patients"}, "[6]": {"conditions": "5 mg/day, Week 14 (off therapy), idiopathic patients"}, "[7]": {"conditions": "15 mg/day, Week 4, diabetic patients"}, "[8]": {"conditions": "15 mg/day, Week 4, idiopathic patients"}, "[9]": {"conditions": "15 mg/day, Week 8, diabetic patients"}, "[10]": {"conditions": "15 mg/day, Week 8, idiopathic patients"}, "[11]": {"conditions": "15 mg/day, Week 12, diabetic patients"}, "[12]": {"conditions": "15 mg/day, Week 12, idiopathic patients"}, "[13]": {"conditions": "15 mg/day, Week 14 (off therapy), diabetic patients"}, "[14]": {"conditions": "15 mg/day, Week 14 (off therapy), idiopathic patients"}, "[15]": {"conditions": "30 mg/day, Week 4, diabetic patients"}, "[16]": {"conditions": "30 mg/day, Week 4, idiopathic patients"}, "[17]": {"conditions": "30 mg/day, Week 8, diabetic patients"}, "[18]": {"conditions": "30 mg/day, Week 12, diabetic patients"}, "[19]": {"conditions": "30 mg/day, Week 12, idiopathic patients"}, "[20]": {"conditions": "30 mg/day, Week 14 (off therapy), diabetic patients"}, "[21]": {"conditions": "30 mg/day, Week 14 (off therapy), idiopathic patients"}}, "excerpt": "The total duration of study participation for each completed subject was approximately 19 weeks including: • Screening period: up to 5 weeks, including one week baseline period; • Treatment period: 12 weeks; and • Follow-up: 2 weeks.\nTo qualify for entry into the Baseline Period of the study, subjects had to have: a) a composite score of 2 and <5 points on nausea, bloating, feeling excessively full after meals, and not able to finish a normal-sized meal on the GCS1-2W; b) a score of ≥3 points for at least 2 of these 4 symptoms on the GCS1-2W at Screening; and c) delayed gastric emptying as determined by either a 4-hour ^99mTc GES or GEBT. If a subject failed either the GES or GEBT at Screening, then a second gastric emptying test could have been performed during the Screening Period using the GEBT in order to qualify for the study. Subjects who were eligible for further study participation completed the 2 daily PRO measures (the Gastroparesis Rating Scale [GRS] and a daily version of the GCSI, designated the Gastroparesis Cardinal Symptoms Index—24-Hour Recall [GCS1-24H] in this study) over a 7-day period to establish baselines.\nAfter the 1-week Baseline Period, subjects were required to have a 7-day mean score of ≥2.5 and <5 points on the GCS.1-24H at Day 1 to be eligible for entry. Eligible subjects completed the Patient Assessment of Upper Gastrointestinal Quality of Life (PAG1-QOL) questionnaire to establish baseline QOL metrics at Day 1.\nDuring the treatment period, subjects were instructed to take 1 capsule of study drug once daily approximately 30 minutes prior to eating at approximately the same time each morning and to record the time of drug ingestion in the electronic diary. Subjects also completed the GCS1-24H and GRS on a daily basis using an electronic diary. At specified times, subjects also completed the PAG1-QOL questionnaire to assess QOL metrics and the Treatment Satisfaction Questionnaire. In addition, subjects and clinicians completed the Overall Treatment Effect (OTE) and Overall Gastroparesis Severity (OGS) instruments to serve as anchor instruments for the psychometric evaluation of the GRS measure. Subjects returned to the study center for safety and efficacy assessments as detailed in the Schedule of Study Procedures.\nA total score was used to assess the GCSI PRO, which comprised a mean of 3 means symptoms domain score.\nEach individual domain was evaluated. […] LS Mean Differences in each subgroup are calculated based on repeated measures mixed effect model with change from baseline in weekly GCSI-24H total score as dependent variable, treatment, gastroparesis type (diabetic vs. idiopathic), GE test time (historical vs. prospective), baseline GCSI 24H total score, time, subgroup variable, interaction effect of treatment by time, baseline GCSI 24H total score by time, treatment by subgroup variable, time by subgroup variable and treatment by time by subgroup variable as fixed effect, a random effect of subject within site, using an unstructured covariance structure. For GCSI baseline subgroup analysis, baseline 24H total score is replaced with GCSI baseline categorical variable.", "data": [{"substance": "1-isopropyl-2-oxo-1,2-dihydroquinoline-3-carboxylic acid {(1S,3R,5R)-8-[(R)-2-hydroxy-3-(methanesulfonyl-methyl-amino)propyl]-8-azabicyclo[3.2.1]oct-3-yl}amide [Velusetrag]", "values": [{"measurement": "LS Mean change from baseline, weekly GCSI-24H total score", "setting": "5 mg/day, Week 4, idiopathic patients", "value": "−1.5 (0.18) points"}, {"measurement": "LS Mean Difference vs placebo, weekly GCSI-24H total score", "setting": "5 mg/day, Week 8, ITT", "value": "−0.3 (0.20) points"}, {"measurement": "LS Mean change from baseline, weekly GCSI-24H total score", "setting": "5 mg/day, Week 8, ITT", "value": "−1.6 (0.14) points"}, {"measurement": "LS Mean Difference vs placebo, weekly GCSI-24H total score", "setting": "[1]", "value": "−0.1 (0.27) points"}, {"measurement": "LS Mean change from baseline, weekly GCSI-24H total score", "setting": "[1]", "value": "−1.6 (0.19) points"}, {"measurement": "LS Mean Difference vs placebo, weekly GCSI-24H total score", "setting": "[2]", "value": "−0.6 (0.28) points"}, {"measurement": "LS Mean change from baseline, weekly GCSI-24H total score", "setting": "[2]", "value": "−1.6 (0.20) points"}, {"measurement": "LS Mean Difference vs placebo, weekly GCSI-24H total score", "setting": "5 mg/day, Week 12, ITT", "value": "−0.3", "unit": "points"}, {"measurement": "LS Mean change from baseline, weekly GCSI-24H total score", "setting": "5 mg/day, Week 12, ITT", "value": "−1.7 (0.15) points"}, {"measurement": "LS Mean Difference vs placebo, weekly GCSI-24H total score", "setting": "5 mg/day, Week 12, ITT, listed as VEL", "value": "−0.3 (0.21) points"}, {"measurement": "LS Mean Difference vs placebo, weekly GCSI-24H total score", "setting": "[3]", "value": "−0.0 (0.29) points"}, {"measurement": "LS Mean change from baseline, weekly GCSI-24H total score", "setting": "[3]", "value": "−1.7 (0.21) points"}, {"measurement": "LS Mean Difference vs placebo, weekly GCSI-24H total score", "setting": "[4]", "value": "−0.6 (0.30) points"}, {"measurement": "LS Mean change from baseline, weekly GCSI-24H total score", "setting": "[4]", "value": "−1.7 (0.21) points"}, {"measurement": "LS Mean Difference vs placebo, weekly GCSI-24H total score", "setting": "[5]", "value": "−0.2 (0.29) points"}, {"measurement": "LS Mean change from baseline, weekly GCSI-24H total score", "setting": "[5]", "value": "−1.7 (0.20) points"}, {"measurement": "LS Mean Difference vs placebo, weekly GCSI-24H total score", "setting": "[6]", "value": "−0.4 (0.30) points"}, {"measurement": "LS Mean change from baseline, weekly GCSI-24H total score", "setting": "[6]", "value": "−1.4 (0.21) points"}, {"measurement": "LS Mean Difference vs placebo, weekly GCSI-24H total score", "setting": "15 mg/day, Week 4, ITT", "value": "−0.1 (0.19) points"}, {"measurement": "LS Mean change from baseline, weekly GCSI-24H total score", "setting": "15 mg/day, Week 4, ITT", "value": "−1.2 (0.14) points"}, {"measurement": "LS Mean Difference vs placebo, weekly GCSI-24H total score", "setting": "[7]", "value": 0.1, "unit": "points"}, {"measurement": "LS Mean change from baseline, weekly GCSI-24H total score", "setting": "[7]", "value": "−1.2", "unit": "points"}, {"measurement": "LS Mean Difference vs placebo, weekly GCSI-24H total score", "setting": "[8]", "value": "−0.3 (0.28) points"}, {"measurement": "LS Mean change from baseline, weekly GCSI-24H total score", "setting": "[8]", "value": "−1.2 (0.20) points"}, {"measurement": "LS Mean Difference vs placebo, weekly GCSI-24H total score", "setting": "15 mg/day, Week 8, ITT", "value": "−0.1 (0.21) points"}, {"measurement": "LS Mean change from baseline, weekly GCSI-24H total score", "setting": "15 mg/day, Week 8, ITT", "value": "−1.3 (0.15) points"}, {"measurement": "LS Mean Difference vs placebo, weekly GCSI-24H total score", "setting": "[9]", "value": 0.3, "unit": "points"}, {"measurement": "LS Mean change from baseline, weekly GCSI-24H total score", "setting": "[9]", "value": "−1.2", "unit": "points"}, {"measurement": "LS Mean Difference vs placebo, weekly GCSI-24H total score", "setting": "[10]", "value": "−0.4 (0.30) points"}, {"measurement": "LS Mean change from baseline, weekly GCSI-24H total score", "setting": "[10]", "value": "−1.5 (0.22) points"}, {"measurement": "LS Mean Difference vs placebo, weekly GCSI-24H total score", "setting": "15 mg/day, Week 12, ITT", "value": "−0.0 (0.22) points"}, {"measurement": "LS Mean change from baseline, weekly GCSI-24H total score", "setting": "15 mg/day, Week 12, ITT", "value": "−1.4 (0.16) points"}, {"measurement": "LS Mean Difference vs placebo, weekly GCSI-24H total score", "setting": "[11]", "value": 0.4, "unit": "points"}, {"measurement": "LS Mean change from baseline, weekly GCSI-24H total score", "setting": "[11]", "value": "−1.3", "unit": "points"}, {"measurement": "LS Mean Difference vs placebo, weekly GCSI-24H total score", "setting": "[12]", "value": "−0.4 (0.32) points"}, {"measurement": "LS Mean change from baseline, weekly GCSI-24H total score", "setting": "[12]", "value": "−1.5 (0.24) points"}, {"measurement": "LS Mean Difference vs placebo, weekly GCSI-24H total score", "setting": "[13]", "value": 0.4, "unit": "points"}, {"measurement": "LS Mean change from baseline, weekly GCSI-24H total score", "setting": "[13]", "value": "−1.1", "unit": "points"}, {"measurement": "LS Mean Difference vs placebo, weekly GCSI-24H total score", "setting": "[14]", "value": "−0.1 (0.31) points"}, {"measurement": "LS Mean change from baseline, weekly GCSI-24H total score", "setting": "[14]", "value": "−1.2 (0.23) points"}, {"measurement": "LS Mean Difference vs placebo, weekly GCSI-24H total score", "setting": "30 mg/day, Week 4, ITT", "value": "0.1 (0.19) points"}, {"measurement": "LS Mean change from baseline, weekly GCSI-24H total score", "setting": "30 mg/day, Week 4, ITT", "value": "−1.0 (0.13) points"}, {"measurement": "LS Mean Difference vs placebo, weekly GCSI-24H total score", "setting": "[15]", "value": 0.2, "unit": "points"}, {"measurement": "LS Mean change from baseline, weekly GCSI-24H total score", "setting": "[15]", "value": "−1.0", "unit": "points"}, {"measurement": "LS Mean Difference vs placebo, weekly GCSI-24H total score", "setting": "[16]", "value": "−0.1 (0.26) points"}, {"measurement": "LS Mean change from baseline, weekly GCSI-24H total score", "setting": "[16]", "value": "−1.0 (0.18) points"}, {"measurement": "LS Mean Difference vs placebo, weekly GCSI-24H total score", "setting": "30 mg/day, Week 8, ITT", "value": "−0.0 (0.20) points"}, {"measurement": "LS Mean change from baseline, weekly GCSI-24H total score", "setting": "30 mg/day, Week 8, ITT", "value": "−1.3 (0.14) points"}, {"measurement": "LS Mean Difference vs placebo, weekly GCSI-24H total score", "setting": "[17]", "value": 0.2, "unit": "points"}, {"measurement": "LS Mean change from baseline, weekly GCSI-24H total score", "setting": "[17]", "value": "−1.3", "unit": "points"}, {"measurement": "LS Mean Difference vs placebo, weekly GCSI-24H total score", "setting": "30 mg/day, Week 8, idiopathic patients", "value": "−0.2 (0.29) points"}, {"measurement": "LS Mean Difference vs placebo, weekly GCSI-24H total score", "setting": "30 mg/day, Week 12, ITT", "value": "−0.1 (0.22) points"}, {"measurement": "LS Mean change from baseline, weekly GCSI-24H total score", "setting": "30 mg/day, Week 12, ITT", "value": "−1.5 (0.15) points"}, {"measurement": "LS Mean Difference vs placebo, weekly GCSI-24H total score", "setting": "[18]", "value": 0.1, "unit": "points"}, {"measurement": "LS Mean change from baseline, weekly GCSI-24H total score", "setting": "[18]", "value": "−1.6", "unit": "points"}, {"measurement": "LS Mean Difference vs placebo, weekly GCSI-24H total score", "setting": "[19]", "value": "−0.2 (0.30) points"}, {"measurement": "LS Mean change from baseline, weekly GCSI-24H total score", "setting": "[19]", "value": "−1.3 (0.21) points"}, {"measurement": "LS Mean Difference vs placebo, weekly GCSI-24H total score", "setting": "[20]", "value": "−0.1", "unit": "points"}, {"measurement": "LS Mean change from baseline, weekly GCSI-24H total score", "setting": "[20]", "value": "−1.7", "unit": "points"}, {"measurement": "LS Mean Difference vs placebo, weekly GCSI-24H total score", "setting": "[21]", "value": "0.0 (0.29) points"}, {"measurement": "LS Mean change from baseline, weekly GCSI-24H total score", "setting": "[21]", "value": "−1.0 (0.20) points"}]}]}
